Activity calls are given as the source filed them.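 Rule for the calls: active = IC50 under 35 µM for lowering the luciferase reporter signal in dopamine receptor counterscreen cells; inactive = IC50 over 35 µM.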
Tested on: HEK293 dopamine receptor CRE-luciferase, luminescence
Assay: inhibition of dopamine-driven CRE reporter signal – cell-based, HEK293, luminescence, dry powder, set 2, counter-screen for LGR2 antagonist project, dose response (AID 743503)

| SMILES | IC50 |
| --- | --- |
| C[C@H](CO)N1C[C@H](C)[C@H](CN(C)C(=O)Nc2ccc(F)cc2)OCCCC[C@H](C)Oc2ccc(NC(=O)C3CCCC3)cc2C1=O | > 35 µM (inactive) |
| C[C@H]1CCCCO[C@@H](CN(C)C(=O)Nc2cccc3ccccc23)[C@@H](C)CN([C@@H](C)CO)C(=O)c2cc(NC(=O)C3CCCCC3)ccc2O1 | > 35 µM (inactive) |
| C[C@H](CO)N1C[C@H](C)[C@H](CN(C)C(=O)Nc2ccc(Cl)cc2)OCCCC[C@H](C)Oc2ccc(NC(=O)C3CCCCC3)cc2C1=O | > 35 µM (inactive) |
| C[C@H](CO)N1C[C@H](C)[C@H](CN(C)C(=O)Nc2cccc3ccccc23)OCCCC[C@H](C)Oc2ccc(NC(=O)C3CCCCC3)cc2C1=O | > 35 µM (inactive) |
| C[C@H](CO)N1C[C@H](C)[C@H](CN(C)C(=O)Nc2ccc3ccccc3c2)OCCCC[C@H](C)Oc2ccc(NC(=O)C3CCCCC3)cc2C1=O | > 35 µM (inactive) |
| C[C@@H]1CN([C@@H](C)CO)C(=O)c2cc(NC(=O)C3CCCCC3)ccc2O[C@@H](C)CCCCO[C@H]1CN(C)C(=O)Nc1cccc2ccccc12 | > 35 µM (inactive) |
| C[C@H](CO)N1C[C@H](C)[C@H](CN(C)C(=O)Nc2cccc(F)c2)OCCCC[C@H](C)Oc2ccc(NC(=O)C3CCCCC3)cc2C1=O | > 35 µM (inactive) |
| C[C@H](CO)N1C[C@H](C)[C@H](CN(C)C(=O)Nc2ccc(F)cc2)OCCCC[C@H](C)Oc2ccc(NC(=O)C3CCCCCC3)cc2C1=O | > 35 µM (inactive) |
| Cc1ccc(NC(=O)N(C)C[C@@H]2OCCCC[C@H](C)Oc3ccc(NC(=O)C4CCCCC4)cc3C(=O)N([C@H](C)CO)C[C@@H]2C)cc1 | > 35 µM (inactive) |
| C[C@H](CO)N1C[C@H](C)[C@H](CN(C)C(=O)Nc2ccccc2F)OCCCC[C@H](C)Oc2ccc(NC(=O)C3CCCCC3)cc2C1=O | > 35 µM (inactive) |

— PubChem BioAssay AID743503 (Broad Institute, 2014)
